Measured values from US9289445B2, “Compositions and methods for treating or preventing a retrovirus infection” (University of Rochester, priority 2011, dated 2016).

Key:
HIV-1 RT [1] = target: T1, HIV-1 RT (Human immunodeficiency virus type 1 group M subtype B, UniProt P04585); assay: Single nucleotide extension at macrophage nucleotide concentrations; format: biochemical; conditions: rNTP alone at macrophage concentration
T1 construct: Pre-Steady State Kinetic Parameters of HIV-1 RT for dTTP/dUTP
Text: FIGS. 4A-4E compare the dNTP and rNTP incorporation rates of HIV-1 RT at nucleotide concentrations found in human macrophages. Incorporation kinetics of HIV-1 RT (green circle) for individual dNTPs and rNTPs at their concentrations found in macrophages (see Table 1) were compared by single nucleotide extension reactions. FIG. 4A is a gel showing a representative time-course reaction set for dATP alone, ATP alone, or both dATP and ATP at their macrophage concentrations. P: unextended 17-mer primer, E: extended 18-mer product. and C: no RT control. FIG. 4B includes graphs. The percentages of the primer extension at early time points were plotted to compare the incorporation rate for each dNTP or rNTP alone as well as for dNTPs and rNTPs at their macrophage concentrations. FIG. 4C is a gel showing a time-course reaction. Identical reactions were conducted with SIVagm Sab-1 RT. FIG. 4D is a table showing the steady state Km values of HIV-1 RT to rNTPs determined by single nucleotide incorporation assays. FIG. 4E is a graph comparing rNTP concentrations (black bars) of macrophages and PBMCs and the Km values (red zone) of HIV-1 RT to rNTPs. Grey bars: average concentrations of dNTPs of the two target cell types obtained from Table 1.
The incorporation kinetics for individual dNTPs and rNTPs by retrovirus RT at the concentrations found in non-dividing cells were assessed. For this, a primer extension reaction similar to that used in FIG. 3C was employed, except nucleotide specific primers and a single dNTP, rNTP, or both were used to estimate individual nucleotide incorporation rates. […] Upon combining dNTPs and rNTPs in a reaction (FIGS. 4A and B, purple dotted lines), the total single nucleotide extension rate appeared to be elevated as compared to the rates of either dNTP (red line) or rNTP alone. When primer extension products were plotted by time, primer extension was accelerated in the presence of both dNTPs and rNTPs at their macrophage concentrations as compared to the reactions containing either dNTPs or rNTPs alone. The results of this single nucleotide assay are consistent with the data from the multiple nucleotide incorporation assay (FIG. 3C).

HIV-1 RT [2] = target: T1, HIV-1 RT; assay: Pre-steady state quench flow titrations for dTTP and dUTP; format: biochemical
Method: To confirm that selectivity is not pronounced during the binding or isomerization steps of polymerization, pre-steady state quench flow titrations for dTTP and dUTP were performed with HIV-1 RT.

SIVagm Sab1 RT = assay: Steady state kinetics of reverse transcriptase for dTTP/dUTP; format: biochemical, simian immunodeficiency virus (SIVagm Sab); conditions: SIV RT
Method: (§1) Retrovirus RT was assessed for its ability to incorporated dTTP and dUTP at physiologically relevant concentrations. First, Km of HIV-1 RT, SIV RT, MuLV RT, and FIV RT for both dTTP and dUTP was measured.
(§2) All primer extension reactions were analyzed with urea denaturing 10-16% PAGE gels and scanned with a phosphoimager (Biorad, Hercules, Calif.) and quantified with the Biorad Quantity One software. Nonlinear regression analysis was done with Kaleida Graph (Synergy Software, Reading, Pa.). Rates were determined with a single exponential, and Michaelis Menten fits were completed as previously described in Kennedy et al. Biochemistry 48:11161-11168 (2009).

FIV RT = FIV RT (Feline immunodeficiency virus, UniProt P16088); assay: as above; format: biochemical
Method: as §1, §2

MuLV RT = MuLV RT (Moloney murine leukemia virus, UniProt P03355); assay: as above; format: biochemical
Method: as §1, §2

HIV-1 RT [3] = target: T1, HIV-1 RT; assay: as above; format: biochemical
Method: as §1
The single nucleotide incorporation reactions were conducted using 20 nM template/primers (40mer RNA template annealed to Primer A, Ext-T primer, Ext-G primer, or Ext-C primer) and 20 nM RT in 1× reaction buffer for 5 minutes at varying concentrations of NTP. Reactions were performed in triplicate.
as §2

HIV-1 RT [4] = target: T1, HIV-1 RT; assay: Primer extension followed by E. coli UNG2 digestion (dUTP incorporation); format: biochemical
Method: FIG. 8A includes a schematic of a coupled RT extension reaction UNG2 digestion assay and a gel. RT was incubated with i) the dNTP concentrations found in macrophages or PBMCs, and ii) either the dUTP concentration for those cells types or ddH20. These reactions were quenched with EDTA and subjected to E. Coli UNG2 digestion, followed by 95° C. incubation and UREA PAGE gel electrophoresis. The digested bands (*) were quantified and plotted relative to total unextended and extended products. […] FIG. 8C includes a gel showing the results of single nucleotide extension reactions of HIV-1 RT with dTTP and dUTP concentrations found in macrophages. […] The rates of product formation for dTTP (black line), dUTP (blue line), and both dTTP and dUTP (green line) were plotted.
HIV-1 RT mediated DNA synthesis in nucleotide pools found in dividing and non-dividing cells was further assessed using a primer extension assay followed by E. coli UNG2 digestion to quantify the amount of dUTP incorporated under these condition (FIG. 8). The presence of a […] band at the first dTTP/dUTP incorporation site was used to monitor the fraction of DNAs that contained a dUTP following UNG digestion (see * in FIG. 8). […] The single nucleotide extension assays were performed to compare the rate of incorporation dTTP, dUTP, or both nucleotides at concentrations found in non-dividing cells. […]

[5] = tested on: HIV-1 2-LTR DNA circles (proviral DNA synthesis) in macrophages; assay: Quantitative 2LTR circle PCR in transduced macrophages; format: cell-based; conditions: ddUTP treated cells
Method: Human macrophages, which were prepared from multiple donors, were pre-incubated with various concentrations of rACT, and then transduced with an HIV vector (D3-GFP), which expressed all HIV-1 proteins except Env and Nef (replaced with eGFP).
(§3) Dideoxy uracil triphosphate (ddUTP) was assessed for its ability to inhibit viral reverse transcription in non-dividing cells. Primary human macrophages and CD4^+ T-cells were isolated from human buffy coats and pretreated with ddUTP. The treated cells were then transduced with a single round of VSV-G pseudotyped HIV-1 vector D3-HIV in the presence of various concentrations of drug.
Equal p24 level of the produced vector was used for infecting human macrophages pre-incubated with different concentrations of rACT (RI Chemicals, CA) for 12 hours. For ddUTP, the produced vector was pre-incubated for at least two hours. One half of the harvested cells were used for determining the percentages of the GFP expressing and/or propidium iodide (PI) stained cells by FACS at 7 days post infection. All cells used to asses transduction efficiency were gated or stained with propidium iodide to assure live cells were measured. The remaining cells were used for the extraction of genomic DNA. Quantitative 2LTR circle PCR assay using real-time PCR was normalized by total genomic DNA (Biorad, Hercules, Calif.).

[6] = tested on: primary human macrophages
Method: The treated cells were then transduced with a single round of VSV-G pseudotyped HIV-1 vector D3-HIV in the presence of various concentrations of drug.
The purified human monocytes from three different donors were differentiated to macrophages as described previously, and D3HIV-GFP vector system expressing GFP, was also prepared as previously described in Jamburuthugoda et al. J. Biol. Chem. 281:13388-13395 (2006); Diamond et al. J. Biol. Chem. 279:51545-51553 (2004); Jamburuthugoda et al. J. Biol. Chem. 283:9206-9216 (2008); and Weiss et al. Biochemistry 43:4490-4500 (2004). […] One half of the harvested cells were used for determining the percentages of the GFP expressing and/or propidium iodide (PI) stained cells by FACS at 7 days post infection. All cells used to asses transduction efficiency were gated or stained with propidium iodide to assure live cells were measured.

[7] = tested on: HIV-1 vector (DHIV-GFP) in activated CD4+ T cells; assay: HIV-GFP vector transduction of activated CD4+ T cells (GFP FACS); format: cell-based; conditions: ddUTP, CD4+ T cells
Method: Next, rACT was evaluated for its ability to inhibit HIV-1 replication in non-dividing cells. The transduction efficiency of an HIV-1 vector in primary human macrophages in the presence and absence of rACT was measured. Human macrophages, which were prepared from multiple donors, were pre-incubated with various concentrations of rACT, and then transduced with an HIV vector (D3-GFP), which expressed all HIV-1 proteins except Env and Nef (replaced with eGFP). Virus infectivity was determined by FACS analysis for GFP expression at 7 days post infection. […] Finally, the effect of rACT on HIV-1 infection in activated CD4^+ T cells was examined.
as §3
rACT was tested in T cells as follows, human primary activated CD4^+ T cells (2.5×10^5) cells isolated from two donors were pre-treated with 0, 0.1, and 1 mM rACT for 4 hours, and then the cells were transduced with DHIV-GFP. The transduced cells were fixed at 48 hours post transduction, and analyzed by FACS for determining the percent of GFP cells. […]

[8] = tested on: HIV-1 vector (D3-GFP) in primary human macrophages; assay: HIV-GFP vector transduction of primary macrophages (GFP FACS); format: cell-based; conditions: ddUTP pretreated macrophages, flow cytometry
Method: Human primary macrophages were preincubated with different concentrations of rACT (0, 10, 100 and 100 μM) for 24 hours and then transduced with HIV-GFP vector (equal p24 amounts). The percentages of GFP positive macrophages and PI positive cells in a representative donor, which were determined by FACS at 7 days post transduction, are shown. […] These experiments were performed in triplicate from three different blood donors.
Primary human macrophages were pretreated with ddUTP and transduced with a single round VSV-G pseudotyped HIV-1 vector (D3HIV). […] FIG. 10B is a graph showing the results from flow cytometry analysis of the transduced cells.
Next, rACT was evaluated for its ability to inhibit HIV-1 replication in non-dividing cells. The transduction efficiency of an HIV-1 vector in primary human macrophages in the presence and absence of rACT was measured. Human macrophages, which were prepared from multiple donors, were pre-incubated with various concentrations of rACT, and then transduced with an HIV vector (D3-GFP), which expressed all HIV-1 proteins except Env and Nef (replaced with eGFP). Virus infectivity was determined by FACS analysis for GFP expression at 7 days post infection.
Dideoxy uracil triphosphate (ddUTP) was assessed for its ability to inhibit viral reverse transcription in non-dividing cells. […]

## Nc1ncnc2c1ncn2[C@@H]1O[C@H](COP(=O)(O)OP(=O)(O)OP(=O)(O)O)[C@@H](O)[C@H]1O [ATP]
HIV-1 RT [1]
  rNTP incorporation by HIV-1 RT: efficiently

## Nc1ccn([C@@H]2O[C@H](COP(=O)(O)OP(=O)(O)OP(=O)(O)O)[C@@H](O)[C@H]2O)c(=O)n1 [CTP]
HIV-1 RT [1]
  rNTP incorporation by HIV-1 RT: efficiently

## Nc1nc2c(ncn2[C@@H]2O[C@H](COP(=O)(O)OP(=O)(O)OP(=O)(O)O)[C@@H](O)[C@H]2O)c(=O)[nH]1 [GTP]
HIV-1 RT [1]
  rNTP incorporation by HIV-1 RT: less efficiently

## O=c1ccn([C@@H]2O[C@H](COP(=O)(O)OP(=O)(O)OP(=O)(O)O)[C@@H](O)[C@H]2O)c(=O)[nH]1 [UTP]
HIV-1 RT [1]
  rNTP incorporation by HIV-1 RT: less efficiently

## Cc1cn([C@H]2C[C@H](O)[C@@H](COP(=O)(O)OP(=O)(O)OP(=O)(O)O)O2)c(=O)[nH]c1=O [dTTP]
HIV-1 RT [2]
  Kd: 3.4 ± 0.62 µM
  Kpol: 85.72 ± 7.3 S^−1
  Selectivity: 1.0
  kpol/kd: 25 μM^−1 S^−1
SIVagm Sab1 RT
  Km: 0.0184 ± 0.0043 µM
  Selectivity (dTTP/dUTP): 0.839
FIV RT
  Km: 0.0586 ± 0.0066 µM
  Selectivity (dTTP/dUTP): 3.754
MuLV RT
  Km: 0.0504 ± 0.022 µM
  Selectivity (dTTP/dUTP): 4.969
HIV-1 RT [3]
  Km: 0.0218 ± 0.0028 µM
  Selectivity (dTTP/dUTP): 1.298

## O=c1ccn([C@H]2C[C@H](O)[C@@H](COP(=O)(O)OP(=O)(O)OP(=O)(O)O)O2)c(=O)[nH]1 [dUTP]
HIV-1 RT [2]
  Kd: 5.1 ± 1.93 µM
  Kpol: 194.39 ± 30.0 S^−1
  Selectivity: 1.52
  kpol/kd: 38 μM^−1 S^−1
SIVagm Sab1 RT
  Km: 0.017 ± 0.0035 µM
HIV-1 RT [4]; dUTP and dNTP levels found in non-dividing cells
  dUTP incorporation, fraction of all synthesized DNA: ⅓
HIV-1 RT [4]; non-dividing compared to dividing cell environment
  dUTP incorporation, non-dividing versus dividing cell environment: approximately 5 fold
FIV RT
  Km: 0.18 ± 0.0045 µM
MuLV RT
  Km: 0.253 ± 0.0521 µM
HIV-1 RT [3]
  Km: 0.0277 ± 0.007 µM

## O=c1ccn([C@H]2CC[C@@H](COP(=O)(O)OP(=O)(O)OP(=O)(O)O)O2)c(=O)[nH]1 [ddUTP, Dideoxy uracil triphosphate]
[5]
  2LTR circles (QT-PCR): 2LTR circles accumulated in the cells treated with higher concentrations of drug
[6]
  cell death: little cell death
[7]
  reduction in transduction efficiency: Little or no reduction in transduction efficiency
[8]
  inhibition of transduction (eGFP positive live macrophages): dose dependent inhibition of transduction
